According to patent US20160073633A1, “CROP ENHANCEMENT” (SYNGENTA PARTICIPATIONS AG, priority 2013, published 2016):
“Also recorded” adds a separate entry of the source.

Columns and labels:
potato tubers [1] = test: Experiment 1.2: azoxystrobin sprayed on uncovered pre-germinated potato tubers at about 10° C. (simulated cold stress), plant growth vs check; format: in vivo; conditions: 3 g/ha; for % increased growth vs Check (visual plant growth): pre-germinated, 21 days after application
Protocol: A commercially available SC100 formulation of azoxystrobin was sprayed directly to uncovered potato tubers, which were sitting on soil (50% drench soil mixed with 50% sand), at: • 3 g/ha
(§1) The spray volume was 200 l/ha.
(§2) The check had no treatment of azoxystrobin.
(§3) The trials were repeated in 6 troughs with 3 tubers each.
Varieties tested were Allians, Belana, Marabel and Roberta. Each were tested as pre-germinated (i.e. treatment was applied when the potato tuber had 2-3 mm long sprouts) tubers.
The temperature was held at about 10° C. during the day and night to simulate cold stress.
(§4) No pest pressure present.
Visual Plant Growth was Measured 21 Days after Application: […]

potato tubers [2] = test: Experiment 1.1: azoxystrobin sprayed on uncovered potato tubers, no cold stress, plant growth vs check; format: in vivo
Protocol: A commercially available SC100 formulation of azoxystrobin was sprayed directly to uncovered potato tubers, which were sitting on soil (50% drench soil mixed with 50% sand), at two different rates: • 7.5 g/ha • 3.8 g/ha
as §1, §2, §3
Varieties tested were Allians, Belana, Marabel and Roberta. Each were tested as pre-germinated (i.e. treatment was applied when the potato tuber had 2-3 mm long sprouts) tubers and as non germinated tubers.
The temperature was about 17° C. during the day and about 15° C. during the night.
as §4
Plant vitality was measured with the “Green Seeker” system.

[3] = 21 and 34 days after application

SMILES: CO/C=C(/C(=O)OC)c1ccccc1Oc1cc(Oc2ccccc2C#N)ncn1 [azoxystrobin]
- Number of shoots in comparison with the check (potato tubers [1]; [3]): increased number of shoots
- Shoot length in comparison with the check (potato tubers [1]; [3]): increased shoot length
- Visually more shoot than check (potato tubers [1]; across varieties): up to 38%
- Growth of treated tubers vs untreated check (potato tubers [1]; all varieties): grew better than untreated check
- % increased growth vs Check (visual plant growth) (potato tubers [1]; variety Allians): 38%
- % increased growth vs Check (visual plant growth) (potato tubers [1]; variety Belana): 12%
- % increased growth vs Check (visual plant growth) (potato tubers [1]; variety Marabel): 37%
- % increased growth vs Check (visual plant growth) (potato tubers [1]; variety Roberta): 10%
- Shoot number in comparison with the check (potato tubers [2]; 7.5 g/ha and 3.8 g/ha, spray 200 l/ha, about 17° C. day/15° C. night, Allians, Belana, Marabel, Roberta, pre-germinated and non germinated tubers): increased number of shoots
- Shoot fresh mass in comparison with the check (potato tubers [2]; 7.5 g/ha and 3.8 g/ha, spray 200 l/ha, about 17° C. day/15° C. night, all varieties): increased shoot fresh mass; also recorded: significantly increased
- Plant vitality (Green Seeker) vs check (potato tubers [2]; Allians and Roberta, pre-germinated tubers, about 17° C. day/15° C. night): better than check
- Plant vitality (Green Seeker) in comparison with the check, FIG. 3 (potato tubers [2]; each trial, 7.5 g/ha and 3.8 g/ha): increased plant vitality
- Plant vitality (Green Seeker) vs check (potato tubers [2]; low rate treatment (3.8 g/ha), about 17° C. day/15° C. night): often showed a lower value
